Legend:
[1] = system: Caco-2 cell; assay: Gastrointestinal toxicity: cytotoxicity against Caco-2 cell (LDH activity); type: cell-based, human; details: 2 hours, LDH activity in medium relative to cell lysis agent = 100%
Procedure, shortened: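 Caco-2 cells were grown 48 h, then exposed to compound in medium for 2 h. LDH released into the medium was measured, and cytotoxicity was expressed as activity relative to lysis-agent-treated cells (100%).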

[2] = system: Wistar rats given choline-deficient food; assay: Steatohepatitis model: AST and ALT in blood; type: in vivo, rat; details: 3 mg/kg oral once a day for 2 weeks, n = 4, average ± standard error
From the text: In the present Test Example, a steatohepatitis model was employed with reference to the method of Okan A et al. (Dig. Dis. Sci., 47:2389-2397, 2002).
That is, choline-deficient food (supplied from Oriental Yeast Co., Ltd.) was given to Wistar rats at 7 weeks of age for two weeks to prepare a steatohepatitis model. The test compound was suspended in an aqueous solution of 0.5% methylcellulose (supplied from Wako Pure Chemical Industries), and the aqueous solution of 0.5% methylcellulose (supplied from Wako Pure Chemical Industries) was used as the control. They were orally administered once a day for consecutive 2 weeks. The blood was collected from the abdominal aorta on the day after the final drug administration. AST (GOT) and ALT (GPT) in the blood were measured using the measurement kits (GOT II-HA Test Wako and GPT II Test Wako, supplied from Wako Pure Chemical Industries) with an automatic analyzer (Nitech ANALAYZER SUPER Z818).

[3] = system: KKA^y/Ta Jcl male mice; assay: Obesity and fatty liver model: body weight and liver triglyceride; type: in vivo, mouse; details: Table 14-2
Protocol: In the present Test Example, an obesity and fatty liver model was employed with reference to the method described in WO02/09757.
That is, KKA^y/Ta Jcl male mice at 10 weeks of age were used as obese mice (N=4 to 7). The test compound was dissolved or suspended in the aqueous solution of 1% HCO 60 (supplied from Nippon Chemicals). The aqueous solution of 1% HCO 60 (supplied from Nippon Chemicals) was used as the control. The consecutive administration was performed once a day for 2 weeks, and body weight was measured daily and compared with the body weight on the day before the administration. On the day after the final administration, the liver was removed, and a triglyceride concentration in liver tissue was measured using a measurement kit (Triglyceride Test Wako, supplied from Wako Pure Chemical Industries). The results are shown in the following Table 14 (Tables 14-1 to 14-3).

[4] = system: rats dosed cholic acid; assay: Lowering effect on bile acid concentrations in portal vein blood in rats dosed cholic acid; type: in vivo, rat; details: 0.1 mg/kg oral with cholic acid 200 mg/kg; portal vein serum total bile acid 2 hours after; control = 100%; surfactant HCO-60 (##)
Procedure, shortened: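 Fasted male SD (IGS) rats aged 7–9 weeks received oral cholic acid (200 mg/kg) plus test compound in water with 0.05% or 1% surfactant (n=6). Portal vein serum total bile acid measured 2 h post-dose; reduction rate (%) calculated against cholic acid-only controls set as 100%.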

[5] = target: T1, human IBAT (Homo sapiens, UniProt Q12908); assay: In vitro assay using Cos 7 cells, transiently expressed human IBAT; type: cell-based; details: [3H]-taurocholate 8 μM uptake, 37° C., 60 minutes
T1 sequence (Q12908 1-348): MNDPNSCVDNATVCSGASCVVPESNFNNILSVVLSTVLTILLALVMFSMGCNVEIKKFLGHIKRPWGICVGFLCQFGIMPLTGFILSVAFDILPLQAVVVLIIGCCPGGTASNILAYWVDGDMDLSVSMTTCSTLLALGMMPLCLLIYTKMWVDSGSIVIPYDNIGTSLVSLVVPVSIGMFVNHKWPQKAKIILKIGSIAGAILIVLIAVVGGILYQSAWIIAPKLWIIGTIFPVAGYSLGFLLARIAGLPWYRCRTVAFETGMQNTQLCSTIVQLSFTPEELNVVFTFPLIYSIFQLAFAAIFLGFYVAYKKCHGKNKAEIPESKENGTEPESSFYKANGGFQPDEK
Procedure, shortened: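 Cos 7 cells transfected with human or rat IBAT cDNA were assayed one day later in Hanks buffer with 25 mM glucose and 10 mM HEPES (pH 7.4) containing compound. [^3H]-taurocholate (8 μM final) uptake ran 60 min at 37° C. Cells were washed with 1 mM taurocholate, lysed in NaOH, and counted by liquid scintillation.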

Compound: CCCCC1(CCCC)CS(=O)(=O)c2ccc(N(C)C)cc2C(c2cccc(NC(=S)Nc3ccc(C[N+]45CCC(c6ccccc6)(CC4)CC5)cc3)c2)N1.[Br-] (racemic) [EXAMPLE 3696]
- CELL TOXICITY AGAINST Caco2 3 μM ([1]; 3 μM): <1%
- CELL TOXICITY AGAINST Caco2 10 μM ([1]; 10 μM): <1%
- CELL TOXICITY AGAINST Caco2 30 μM ([1]; 30 μM): <1%
- AST ([2]; control group (n = 6) 180 ± 46): 98 ± 23 IU/L
- ALT ([2]; control group (n = 6) 245 ± 57): 145 ± 34 IU/L
- BODY WEIGHT (g) BEFORE ADMINISTRATION ([3]; 1 mg/kg group, baseline, control group 44.1 ± 0.6): 43.5 ± 1.3 g
- BODY WEIGHT (g) DIFFERENCE ([3]; 1 mg/kg once a day for 2 weeks, control group 0.7 ± 0.4): -1.3 ± 0.3 g
- BODY WEIGHT (g) TWO WEEKS ([3]; 1 mg/kg once a day for 2 weeks, control group 44.8 ± 0.9): 42.2 ± 2.2 g
- LIVER TRIGLYCERIDE ([3]; 1 mg/kg once a day for 2 weeks, control group 103 ± 19): 76 ± 12 mg/g
- BILE ACID REDUCTION RATE (%) IN RAT MODEL WITH CHOLIC ACID LOADING [4]: 13%
- IC50 [5]: 39 nM

From patent US20120015925A1, “NOVEL BENZOTHIAZEPINE AND BENZOTHIEPINE COMPOUNDS” (ASAHI KASEI PHARMA CORPORATION, priority 2004, published 2012)
